The source of these data is patent US20090240027A1, “INTERMEDIATES FOR MACROCYCLIC COMPOUNDS” (Tranzyme Pharma Inc., priority 2003, published 2009).

One assay deals with human motilin receptor (Homo sapiens, UniProt O43193). Briefly: Competitive radioligand binding assay (Method B1). More on the design: purchased PerkinElmer 6110544; host or cells: CHO cells, stably transfected (membranes). Conditions: Radioligand competitive binding assay, Method B1; values reported as ranges; read-out: Ki (binding activity). The procedure: Competitive Radioligand Binding Assay (Motilin Receptor)
human motilin receptor, sequence (O43193 whole entry): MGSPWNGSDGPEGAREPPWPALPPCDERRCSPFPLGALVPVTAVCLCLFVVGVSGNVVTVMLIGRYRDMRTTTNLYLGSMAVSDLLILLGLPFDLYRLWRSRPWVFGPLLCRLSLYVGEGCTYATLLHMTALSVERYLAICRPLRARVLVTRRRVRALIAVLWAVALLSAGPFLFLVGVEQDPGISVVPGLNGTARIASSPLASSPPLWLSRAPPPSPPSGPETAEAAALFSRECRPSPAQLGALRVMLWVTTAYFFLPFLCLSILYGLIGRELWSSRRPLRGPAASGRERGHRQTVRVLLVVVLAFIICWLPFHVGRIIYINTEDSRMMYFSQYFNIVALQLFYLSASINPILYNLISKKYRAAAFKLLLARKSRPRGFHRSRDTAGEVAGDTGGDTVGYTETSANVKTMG
• Membranes were prepared from CHO cells stably transfected with the human motilin receptor and utilized at a quantity of 1.5 μg/assay point.
Final Test Concentrations (N=11) for Compounds:
Compounds were provided frozen on dry ice at a stock concentration of 10 mM diluted in 100% DMSO and stored at −20° C. until the day of testing. On the test day, compounds were allowed to thaw at room temperature and than diluted in assay buffer according to the desired test concentrations. Under these conditions, the maximum final DMSO concentration in the assay was 0.5%.
Plates are sealed with TopSeal-A, vortexed gently and incubated at room temperature for 2 hours. The reaction is arrested by filtering samples through pre-soaked (0.3% polyethyleneimine, 2 h) Multiscreen Harvest plates using a Tomtec® Harvester (Tomtec, Hamden, Conn.)), washed 9 times with 500 μL of cold 50 mM Tris-HCl (pH 7.4), and than plates are air-dried in a fumehood for 30 minutes. A bottom seal is applied to the plates prior to the addition of 25 μL of MicroScint-0™ to each well.
Data are analyzed by GraphPad™ Prism (GraphPad Software, San Diego, Calif.) using a variable slope non-linear regression analysis.
where total and non-specific binding represent the cpm obtained in the absence or presence of 1 μM motilin, respectively.
Turning to `CCCC1NC(=O)C(C)NC(=O)C(Cc2ccc(O)cc2)NCCOc2ccccc2C=CCNC1=O` (stereo not drawn) [Compound 5], the Ki (in general, the dissociation constant of the complex between target and ligand, obtained from inhibition or displacement) was 100 to 1000 nM.
The same measure, in the same setting: with `CCCC1NC(=O)C(CCC)NC(=O)C(Cc2ccc(O)cc2)NCCOc2ccccc2CCCNC1=O` (stereo not drawn) [Compound 91] the figure was 1000 to 10000 nM.
Take `CC(C)CC1NC(=O)C(C(C)C)NC(=O)C(Cc2cccc3ccccc23)NCCOc2cccnc2CCCNC1=O` (stereo not drawn) [Compound 136]: the Ki was 100 to 1000 nM.
With `CCCC1NC(=O)C(C(C)C)NC(=O)C(CCc2ccccc2)NCCOc2ccccc2CCCNC1=O` (stereo not drawn) [Compound 89], the Ki is 1000 to 10000 nM.
As for `CCC[C@@H]1NC(=O)[C@@H](C(C)C)NC(=O)[C@@H](Cc2ccccc2)NCCOc2ccccc2/C=C/CNC1=O` [Compound 2], the Ki was in the range of 1 to 100 nM.
On the same count and under the same terms, with `CCCC1NC(=O)C(C(C)C)NC(=O)C(Cc2ccc(O)cc2)NCCOc2ccccc2C=CCNC1=O` (stereo not drawn) [Compound 85] the figure was 100 to 1000 nM; with `CCC[C@@H]1NC(=O)[C@@H](C(C)C)NC(=O)[C@@H](Cc2ccc(Cl)c(Cl)c2)NCCOc2ccccc2CCCNC1=O` [Compound 170], 1 to 100 nM.
Still for that read-out and setting: with `CCCC1NC(=O)C(C(C)C)NC(=O)C(Cc2ccccn2)NCCOc2ccccc2CCCNC1=O` (stereo not drawn) [Compound 123] the figure was 100 to 1000 nM; with `CC(C)C1NC(=O)C(Cc2cccc3ccccc23)NCCOc2ccccc2CCCNC(=O)C(CO)NC1=O` (stereo not drawn) [Compound 179], 100 to 1000 nM; with `CCCC1NC(=O)C(C(C)C)NC(=O)C(Cc2ccc(O)cc2)NCCOc2cccnc2CCCNC1=O` (stereo not drawn) [Compound 110], 100 to 1000 nM.
On the same count and under the same terms, the value for `CC(C)C1NC(=O)C(Cc2ccc(O)cc2)NCCOc2ccccc2CCCNC(=O)C(CCN)NC1=O` (stereo not drawn) [Compound 109] was 100 to 1000 nM.
Consider `COc1ccc(C[C@H]2NCCOc3ccccc3CCCNC(=O)[C@H](CC(C)C)NC(=O)[C@@H](C(C)C)NC2=O)cc1` [Compound 128], for which the Ki lay within 100 to 1000 nM.
On the same count and under the same terms, the value for `CCCC1NC(=O)C(Cc2ccccc2)NC(=O)C(Cc2ccc(O)cc2)NCCOc2ccccc2C=CCNC1=O` (stereo not drawn) [Compound 41] was 1000 to 10000 nM; that for `CCCC1NC(=O)C(C(C)C)NC(=O)C(Cc2ccc(CN)cc2)NCCOc2ccccc2CCCNC1=O` (stereo not drawn) [Compound 161] was 100 to 1000 nM; that for `CC(C)C1NC(=O)C(Cc2ccc(O)cc2)NCCOc2ccccc2C=CCNC(=O)CNC1=O` (stereo not drawn) [Compound 40] was 1000 to 10000 nM.
Still for that read-out and setting: the value for `CCCC1NC(=O)C(C(C)(C)C)NC(=O)C(Cc2ccc(O)cc2)NCCOc2ccccc2CCCNC1=O` (stereo not drawn) [Compound 92] was 100 to 1000 nM.
The same measure, in the same setting: the value for `CC(C)C1NC(=O)C(Cc2ccc(O)cc2)NCCOc2ccccc2C=CCNC(=O)C(CCCN)NC1=O` (stereo not drawn) [Compound 56] was 100 to 1000 nM.
Regarding `CCCC1NC(=O)C(CC)NC(=O)C(Cc2ccc(O)cc2)NCCOc2ccccc2CCCNC1=O` (stereo not drawn) [Compound 18], the inhibition constant Ki lay within 100 to 1000 nM.
Same read-out and setting: with `CCCC1NC(=O)C(C(C)C)NC(=O)C(Cc2c[nH]cn2)NCc2ccccc2Sc2ccccc2CNC1=O` (stereo not drawn) [Compound 127] the figure was 100 to 1000 nM; with `CC(C)C[C@@H]1NC(=O)[C@@H](C(C)C)NC(=O)[C@@H](Cc2cccc(Cl)c2)NCCOc2ccccc2CCCNC1=O` [Compound 131], 1 to 100 nM.
On to `CCCCC1NC(=O)C(C(C)C)NC(=O)C(Cc2ccc(O)cc2)NCCOc2ccccc2C=CCNC1=O` (stereo not drawn) [Compound 7], for which the inhibition constant Ki is 100 to 1000 nM.
For `CCCC1NC(=O)C(C2CCCCC2)NC(=O)C(Cc2ccc(O)cc2)NCCOc2ccccc2CCCNC1=O` (stereo not drawn) [Compound 97], the Ki lay in the range of 1000 to 10000 nM.
Same read-out and setting: with `CCCC1NC(=O)C(C(C)C)NC(=O)C(Cc2cccnc2)NCCOc2ccccc2CCCNC1=O` (stereo not drawn) [Compound 28] the figure was 100 to 1000 nM; with `CCC[C@@H]1NC(=O)[C@@H](C(C)C)NC(=O)[C@@H](Cc2ccc(Cl)cc2)NCCOc2ccccc2CCCNC1=O` [Compound 16], 1 to 100 nM.
Still for that read-out and setting: with `CSCCC1NC(=O)C(C(C)C)NC(=O)C(Cc2ccc(O)cc2)NCCOc2ccccc2C=CCNC1=O` (stereo not drawn) [Compound 6] the figure was 100 to 1000 nM; with `CCC[C@@H]1NC(=O)[C@@H](C(C)C)NC(=O)[C@@H](Cc2ccc(F)c(F)c2)NCCOc2ccccc2CCCNC1=O` [Compound 171], 1 to 100 nM.
As to `COc1ccc(CC2NCCOc3cccnc3CCCNC(=O)C(CC(C)C)NC(=O)C(C(C)C)NC2=O)cc1` (stereo not drawn) [Compound 135], the Ki lay in the range of 100 to 1000 nM.
On the same count and under the same terms, with `CCCC1NC(=O)C(C(C)C)NC(=O)C(Cc2ccccc2Cl)NCCOc2ccccc2CCCNC1=O` (stereo not drawn) [Compound 25] the figure was 100 to 1000 nM.
As for `CCCC1NC(=O)C(C(C)C)NC(=O)C(C(c2ccccc2)c2ccccc2)NCCOc2ccccc2CCCNC1=O` (stereo not drawn) [Compound 90], the Ki was in the range of 1000 to 10000 nM.
Same read-out and setting: the value for `CC(C)C[C@@H]1NC(=O)[C@@H](C(C)C)NC(=O)[C@@H](Cc2ccc3ccccc3c2)NCCOc2ccccc2/C=C/CNC1=O` [Compound 21] was 1 to 100 nM; that for `COc1ccc(C[C@H]2NCCOc3ccccc3CCCNC(=O)[C@H](CC3CC3)NC(=O)[C@@H](C(C)C)NC2=O)cc1` [Compound 141] was 1 to 100 nM; that for `CCC(C)C1NC(=O)C(C(C)C)NC(=O)C(Cc2ccc(O)cc2)NCCOc2ccccc2C=CCNC1=O` (stereo not drawn) [Compound 80] was 100 to 1000 nM.
On to `CCCC1NC(=O)C(C(C)C)NC(=O)C(Cc2ccc(O)cc2)NCCCNCCNC1=O` (stereo not drawn) [Compound 98], for which the Ki lay within 1000 to 10000 nM.
On the same count and under the same terms, with `CC(C)[C@H]1NC(=O)[C@@H](Cc2cccc(Cl)c2)NCCOc2ccccc2CCCNC(=O)[C@H](CN)NC1=O` [Compound 155] the figure was 1 to 100 nM; with `CC(C)CC1NC(=O)C(C(C)C)NC(=O)C(Cc2ccccc2)NCCOc2ccccc2CCCNC1=O` (stereo not drawn) [Compound 13], 100 to 1000 nM; with `CCCC1NC(=O)C(C(C)C)NC(=O)C(Cc2ccc(O)cc2)NCCN(C)CCNC1=O` (stereo not drawn) [Compound 99], 1000 to 10000 nM.
Still for that read-out and setting: with `CCCC1NC(=O)C(C(C)C)NC(=O)C(Cc2ccccc2C)NCCOc2ccccc2CCCNC1=O` (stereo not drawn) [Compound 162] the figure was 100 to 1000 nM; with `CCCC1NC(=O)C(C(C)C)NC(=O)C(Cc2ccc(O)cc2)NCCOc2ccccc2CCNC1=O` (stereo not drawn) [Compound 177], 100 to 1000 nM.
Same read-out and setting: with `CC(C)C1NC(=O)C(Cc2cccc3ccccc23)NCCOc2ccccc2CCCNC(=O)C(CN)NC1=O` (stereo not drawn) [Compound 153] the figure was 100 to 1000 nM.
For `CC(C)CC1NC(=O)C(C(C)C)NC(=O)C(Cc2cccs2)NCCOc2cccnc2CCCNC1=O` (stereo not drawn) [Compound 137], the Ki lay within 100 to 1000 nM.
Consider `CC(C)C1NC(=O)C(Cc2ccc(O)cc2)NCCOc2ccccc2C=CCNC(=O)C(CCCCN)NC1=O` (stereo not drawn) [Compound 55], for which the Ki lay within 100 to 1000 nM.
For the compound `CCC[C@@H]1NC(=O)[C@@H](C(C)C)NC(=O)[C@@H](Cc2ccc(OC)c(OC)c2)NCCOc2ccccc2CCCNC1=O` [Compound 172], the Ki was 1 to 100 nM.
`COc1ccc(CC2NCCOc3ccccc3CCCNC(=O)C(CN)NC(=O)C(C(C)C)NC2=O)cc1` (stereo not drawn) [Compound 152]: the Ki is 100 to 1000 nM.
As to `CC(C)C1NC(=O)C(Cc2ccc(O)cc2)NCCOc2ccccc2C=CCNC(=O)C(C(C)C)NC1=O` (stereo not drawn) [Compound 9], the Ki was 100 to 1000 nM.
Same read-out and setting: with `COc1ccc(CC2NC(=O)C(C(C)C)NC(=O)C(Cc3ccc(O)cc3)NCCOc3ccccc3C=CCNC2=O)cc1` (stereo not drawn) [Compound 60] the figure was 1000 to 10000 nM; with `CCCC1NC(=O)C(C(C)C)NC(=O)C(Cc2ccncc2)NCCOc2ccccc2CCCNC1=O` (stereo not drawn) [Compound 124], 100 to 1000 nM.
On to `CC1NC(=O)C(C(C)C)NC(=O)C(Cc2ccc(O)cc2)NCCOc2ccccc2C=CCNC1=O` (stereo not drawn) [Compound 38], for which the Ki lay within 1000 to 10000 nM.
Same read-out and setting: the value for `CC(C)C[C@@H]1NC(=O)[C@@H](C(C)C)NC(=O)[C@@H](Cc2ccc(Cl)cc2)NCCOc2ccccc2CCCNC1=O` [Compound 132] was 1 to 100 nM; that for `CC(C)C[C@@H]1NC(=O)[C@@H](C(C)C)NC(=O)[C@@H](Cc2ccc3ccccc3c2)NCCOc2ccccc2CCCNC1=O` [Compound 14] was 100 to 1000 nM; that for `CC(C)[C@H]1NC(=O)[C@@H](Cc2ccc(Cl)cc2)NCCOc2ccccc2CCCNC(=O)[C@H](CC2CC2)NC1=O` [Compound 145] was 1 to 100 nM.
As to `CC(C)C1NC(=O)C(Cc2ccc(O)cc2)NCCOc2ccccc2C=CCNC(=O)C(Cc2c[nH]c3ccccc23)NC1=O` (stereo not drawn) [Compound 59], the Ki lay within 100 to 1000 nM.
Consider `CC(C)[C@H]1NC(=O)[C@@H](Cc2cccc(Cl)c2)NCCOc2cccnc2CCCNC(=O)[C@H](CN)NC1=O` [Compound 158], for which the Ki lay in the range of 1 to 100 nM.
Same read-out and setting: the value for `CC(C)C1NC(=O)C(Cc2ccc(O)cc2)NCCOc2ccccc2C=CCNC(=O)C(c2ccccc2)NC1=O` (stereo not drawn) [Compound 52] was 100 to 1000 nM.
The same measure, in the same setting: the value for `CCC[C@@H]1NC(=O)[C@@H](C(C)C)NC(=O)[C@@H](Cc2ccc(F)cc2)NCCOc2ccccc2CCCNC1=O` [Compound 19] was 1 to 100 nM.
For the compound `CCC[C@@H]1NC(=O)[C@@H](C(C)C)NC(=O)[C@@H](Cc2c[nH]c3ccccc23)NCCOc2ccccc2CCCNC1=O` [Compound 17], the inhibitory constant (Ki) lay within 100 to 1000 nM.

The assay is the same for the next values; noted with them: [125I]-motilin competition, CHO cell membranes with human motilin receptor; read-out: Binding activity (Ki).
On to `CCCC1NC(=O)C(C(C)C)NC(=O)C(Cc2ccc(O)cc2)NCCOc2ccccc2C=CCNC1=O` (stereo not drawn) [Compound 1], for which the Ki was 100 to 1000 nM.

The same assay, now with this note: result in words; linear analogue of compound 1.
`CCC[C@H](NC(=O)[C@H](NC(=O)[C@@H](Cc1ccc(O)cc1)NCCOc1ccccc1/C=C/CNC(C)=O)C(C)C)C(N)=O` [Compound 121]: the Binding activity result is given as “lack of binding activity”.
